According to article PMC6116705, “Design, synthesis, in vitro antiproliferative activity and apoptosis-inducing studies of 1-(3′,4′,5′-trimethoxyphenyl)-3-(2′-alkoxycarbonylindolyl)-2-propen-1-one derivatives obtained by a molecular hybridisation approach” (Journal of Enzyme Inhibition and Medicinal Chemistry, 2018):
Like-named read-outs stand apart in the source and are kept apart here.

How the values were obtained:
[1] = tested on: human cervix carcinoma (HeLa) cells; assay: Antiproliferative assay, cell counting (Coulter Counter), HeLa; type: cell-based; details: read-out: IC50, inhibition of proliferation
Experimental: (§1) Human cervix carcinoma (HeLa), human colon carcinoma (HT29), human breast carcinoma (MCF-7) and human lymphoma (HL-60) cells (3–5 × 10^4 cells) and a serial (five-fold) dilution of the test compounds were added to a 96-well microtiter plate. The cells were incubated for 72–96 h (depending on the tumor cell line) at 37 °C in a humidified 5% CO2 atmosphere. At the end of the incubation period, the cells were counted in a Coulter Counter (Coulter Electronics Ltd, Harpenden Herts, UK). […] The IC50 values represent the average (±standard deviation) of at least two to four independent experiments.

[2] = tested on: bovine brain tubulin; assay: Inhibition of tubulin polymerisation (turbidimetric tubulin assembly); type: biochemical; details: tubulin 10 µM, 20 min at 30 °C; read-out: Tubulin assembly IC50±SD
Experimental: (§2) To evaluate the effect of the compounds on tubulin assembly in vitro[40], varying concentrations of compounds were preincubated with 10 μM bovine brain tubulin in 0.8M monosodium glutamate (pH adjusted to 6.6 with HCl in a 2.0M stock solution) at 30 °C and then cooled to 0 °C. After addition of 0.4 mM GTP, the mixtures were transferred to 0 °C cuvettes in a recording spectrophotometer and warmed to 30 °C. Tubulin assembly was followed turbidimetrically at 350 nm. […] The capacity of the test compounds to inhibit colchicine binding to tubulin was measured as described. The reaction mixtures contained 1 μM tubulin, 5 μM [^3H]colchicine and 5 μM test compound.

[3] = tested on: human colon adenocarcinoma (HT29) cells; assay: Antiproliferative assay, cell counting (Coulter Counter), HT29; type: cell-based; details: read-out: IC50, inhibition of proliferation
Experimental: as §1

[4] = tested on: human promyelocytic leukemia (HL-60) cells; assay: Antiproliferative assay, cell counting (Coulter Counter), HL-60; type: cell-based; details: read-out: IC50, inhibition of proliferation
Experimental: as §1

[5] = tested on: human breast adenocarcinoma (MCF-7) cells; assay: Antiproliferative assay, cell counting (Coulter Counter), MCF-7; type: cell-based; details: read-out: IC50, inhibition of proliferation
Experimental: as §1

[6] = tested on: tubulin (colchicine site); assay: Inhibition of [3H]colchicine binding to tubulin; set-up: species or system bovine; details: tubulin 1 µM, [3H]colchicine 5 µM, compound 5 µM
Experimental: as §2

[7] = tested on: U251 glioblastoma cancer cell line; set-up: method as in PMID 27343855; details: read-out: IC50, antiproliferative activity; cited from earlier work
[8] = Homo sapiens, HT-29, HT29, 72–96 h
[9] = Homo sapiens, MCF7, MCF-7, 72–96 h
[10] = Homo sapiens, reference compounds in nM
[11] = Homo sapiens, HL-60, reference compounds in nM

Row | Compound | IC50 ([1]; Homo sapiens, 72–96 h) [nM] | IC50 [3, 8] [nM] | IC50 ([4]; Homo sapiens, HL-60, 72–96 h) [nM] | IC50 [5, 9] [nM] | melting point [°C] | other results
1 | COC(=O)c1[nH]c2ccc(OC)cc2c1/C=C/C(=O)c1cc(OC)c(OC)c(OC)c1 [Compound 9c, (E)-Methyl 5-methoxy-3-(3-oxo-3-(3,4,5-trimethoxyphenyl)prop-1-en-1-yl)-1H-indole-2-carboxylate] | 2400 ± 600 | 1000 ± 700 | 27000 ± 1000 | 590 | – | IC50 [2]: > 20 µM; Colchicine binding % ±SD (inhibition) [6]: 5.3 ± 4%
2 | COc1ccc2c(/C=C/C(=O)c3cc(OC)c(OC)c(OC)c3)c[nH]c2c1 [4a, reference compound] | – | – | – | – | – | IC50 [1, 10]: 81 ± 2 nM; IC50 ([3]; Homo sapiens, HT-29, HT29, reference compounds in nM): 60 ± 3 nM; IC50 [4, 11]: 23 ± 1 nM; IC50 ([5]; Homo sapiens, MCF7, MCF-7, reference compounds in nM): 49 ± 4 nM
3 | COc1ccc2[nH]c(C)c(/C=C/C(=O)c3cc(OC)c(OC)c(OC)c3)c2c1 [compound 3] | – | – | – | – | – | IC50 [7]: > 10 µM
4 | CCn1c(C(=O)OC)c(/C=C/C(=O)c2cc(OC)c(OC)c(OC)c2)c2ccccc21 [Compound 9k, (E)-Methyl 1-ethyl-3-(3-oxo-3-(3,4,5-trimethoxyphenyl)prop-1-en-1-yl)-1H-indole-2-carboxylate] | 9400 ± 3100 | 6700 ± 1200 | 37000 ± 1000 | 11000 ± 10000 | 115 to 117 | –
5 | COC(=O)c1c(/C=C/C(=O)c2cc(OC)c(OC)c(OC)c2)c2ccccc2n1Cc1ccccc1 [Compound 9o, (E)-Methyl 1-benzyl-3-(3-oxo-3-(3,4,5-trimethoxyphenyl)prop-1-en-1-yl)-1H-indole-2-carboxylate] | 8200 ± 1500 | 11000 ± 6000 | 41000 ± 25000 | 71000 ± 18000 | 166 to 168 | –
6 | CCn1c(C(=O)OC)c(/C=C/C(=O)c2cc(OC)c(OC)c(OC)c2)c2ccc(OC)cc21 [Compound 9n, (E)-Methyl 1-ethyl-6-methoxy-3-(3-oxo-3-(3,4,5-trimethoxyphenyl)prop-1-en-1-yl)-1H-indole-2-carboxylate] | 24000 ± 15000 | 19000 ± 9000 | 47000 ± 11000 | 36000 ± 23000 | 157 to 158 | –
7 | COC(=O)c1c(/C=C/C(=O)c2cc(OC)c(OC)c(OC)c2)c2cc(OC)ccc2n1Cc1ccccc1 [Compound 9q, (E)-Methyl 1-benzyl-5-methoxy-3-(3-oxo-3-(3,4,5-trimethoxyphenyl)prop-1-en-1-yl)-1H-indole-2-carboxylate] | 15000 ± 7000 | 18000 ± 10000 | 39000 ± 27000 | 48000 ± 8000 | 170 to 171 | –
8 | COC(=O)c1c(/C=C/C(=O)c2cc(OC)c(OC)c(OC)c2)c2cc(OC)ccc2n1C [Compound 9i, (E)-Methyl 5-methoxy-1-methyl-3-(3-oxo-3-(3,4,5-trimethoxyphenyl)prop-1-en-1-yl)-1H-indole-2-carboxylate] | 25000 ± 3000 | 22000 ± 1000 | 28000 ± 3000 | 2700 ± 900 | 150 to 151 | –
9 | CCOC(=O)c1[nH]c2ccccc2c1/C=C/C(=O)c1cc(OC)c(OC)c(OC)c1 [Compound 9b, (E)-Ethyl 3-(3-oxo-3-(3,4,5-trimethoxyphenyl)prop-1-en-1-yl)-1H-indole-2-carboxylate] | 2100 ± 800 | 440 ± 330 | – | 1800 ± 1500 | – | –
10 | COC(=O)c1c(/C=C/C(=O)c2cc(OC)c(OC)c(OC)c2)c2ccc(OC)cc2n1C [Compound 9j, (E)-Methyl 6-methoxy-1-methyl-3-(3-oxo-3-(3,4,5-trimethoxyphenyl)prop-1-en-1-yl)-1H-indole-2-carboxylate] | ≥ 100000 | 31000 ± 22000 | 14000 ± 10000 | 11000 ± 4000 | 135 to 136 | –
11 | COC(=O)c1c(/C=C/C(=O)c2cc(OC)c(OC)c(OC)c2)c2ccccc2n1C [Compound 9g, (E)-Methyl 1-methyl-3-(3-oxo-3-(3,4,5-trimethoxyphenyl)prop-1-en-1-yl)-1H-indole-2-carboxylate] | 69000 ± 12000 | 10000 ± 4000 | 67000 ± 46000 | 6700 ± 3000 | 147 to 149 | –
12 | CCOC(=O)c1c(/C=C/C(=O)c2cc(OC)c(OC)c(OC)c2)c2ccccc2n1C [Compound 9h, (E)-Ethyl 1-methyl-3-(3-oxo-3-(3,4,5-trimethoxyphenyl)prop-1-en-1-yl)-1H-indole-2-carboxylate] | 41000 ± 11000 | 5000 ± 1400 | 58000 ± 40000 | 8300 ± 2300 | 138 to 140 | –
13 | (E)-Methyl 1-benzyl-6-methoxy-3-(3-oxo-3-(3,4,5-trimethoxyphenyl)prop-1-en-1-yl)-1H-indole-2-carboxylate [Compound 9r] | – | – | – | – | – | IC50 ([1]; 72–96 h): 26000 ± 4000 nM; IC50 ([3]; HT29, 72–96 h): 27000 ± 2000 nM; IC50 ([4]; HL-60, 72–96 h): 32000 ± 3000 nM; IC50 ([5]; MCF-7, 72–96 h): 28000 ± 3000 nM
14 | CCOC(=O)c1c(/C=C/C(=O)c2cc(OC)c(OC)c(OC)c2)c2ccccc2n1Cc1ccccc1 [Compound 9p, (E)-Ethyl 1-benzyl-3-(3-oxo-3-(3,4,5-trimethoxyphenyl)prop-1-en-1-yl)-1H-indole-2-carboxylate] | 61000 ± 41000 | 9200 ± 4700 | 9000 ± 5100 | 50000 ± 4000 | 128 to 130 | –
15 | CCn1c(C(=O)OC)c(/C=C/C(=O)c2cc(OC)c(OC)c(OC)c2)c2cc(OC)ccc21 [Compound 9l, (E)-Methyl 1-ethyl-5-methoxy-3-(3-oxo-3-(3,4,5-trimethoxyphenyl)prop-1-en-1-yl)-1H-indole-2-carboxylate] | 6800 ± 2600 | 10000 ± 6000 | 26000 ± 15000 | 93000 ± 1000 | 141 to 142 | –
16 | COC(=O)c1[nH]c2ccccc2c1/C=C/C(=O)c1cc(OC)c(OC)c(OC)c1 [Compound 9a, (E)-Methyl 3-(3-oxo-3-(3,4,5-trimethoxyphenyl)prop-1-en-1-yl)-1H-indole-2-carboxylate] | 2000 ± 1000 | 7300 ± 1200 | 4400 | 1100 ± 400 | – | –
17 | COc1ccc(/C=C\c2cc(OC)c(OC)c(OC)c2)cc1O [CA-4, combretastatin A-4, reference compound] | – | – | – | – | – | IC50 [1, 10]: 4 ± 1 nM; IC50 [2]: […]; IC50 [4, 11]: 1 ± 0.2 nM; Colchicine binding % ±SD (inhibition) [6]: 98 ± 0.9%
18 | CCOC(=O)c1c(/C=C/C(=O)c2cc(OC)c(OC)c(OC)c2)c2cc(OC)ccc2n1CC [Compound 9m, (E)-Ethyl 1-ethyl-5-methoxy-3-(3-oxo-3-(3,4,5-trimethoxyphenyl)prop-1-en-1-yl)-1H-indole-2-carboxylate] | 24000 ± 2000 | 14000 ± 6000 | 19000 ± 10000 | 26000 ± 4000 | 160 to 161 | –
